Results as given in patent US10513523B2, “Imidazopyrazines and pyrazolopyrimidines and their use as AMPA receptor modulators” (Janssen Pharmaceutica NV, priority 2015, dated 2019).

What follows are compounds tested against GluA1o-γ8 (GRIA1o-CACNG8 fusion construct; TARP γ8 dependent AMPA receptor) (Homo sapiens (Human), UniProt P42261+Q8WXS5) (assay: Calcium flux assay (FLIPR), inhibition of glutamate response of GluA1o-γ8 channel). Details: HEK293 cells stably expressing GRIA1o-CACNG8 fusion; 15 μM glutamate; pIC50 = negative log of IC50 in molar; read-out: GluR1-γ8 (pIC50) (converted).
GluA1o-γ8 (GRIA1o-CACNG8 fusion construct; TARP γ8 dependent AMPA receptor), sequence (P42261 other isoform, or with tags, fused parts or gaps): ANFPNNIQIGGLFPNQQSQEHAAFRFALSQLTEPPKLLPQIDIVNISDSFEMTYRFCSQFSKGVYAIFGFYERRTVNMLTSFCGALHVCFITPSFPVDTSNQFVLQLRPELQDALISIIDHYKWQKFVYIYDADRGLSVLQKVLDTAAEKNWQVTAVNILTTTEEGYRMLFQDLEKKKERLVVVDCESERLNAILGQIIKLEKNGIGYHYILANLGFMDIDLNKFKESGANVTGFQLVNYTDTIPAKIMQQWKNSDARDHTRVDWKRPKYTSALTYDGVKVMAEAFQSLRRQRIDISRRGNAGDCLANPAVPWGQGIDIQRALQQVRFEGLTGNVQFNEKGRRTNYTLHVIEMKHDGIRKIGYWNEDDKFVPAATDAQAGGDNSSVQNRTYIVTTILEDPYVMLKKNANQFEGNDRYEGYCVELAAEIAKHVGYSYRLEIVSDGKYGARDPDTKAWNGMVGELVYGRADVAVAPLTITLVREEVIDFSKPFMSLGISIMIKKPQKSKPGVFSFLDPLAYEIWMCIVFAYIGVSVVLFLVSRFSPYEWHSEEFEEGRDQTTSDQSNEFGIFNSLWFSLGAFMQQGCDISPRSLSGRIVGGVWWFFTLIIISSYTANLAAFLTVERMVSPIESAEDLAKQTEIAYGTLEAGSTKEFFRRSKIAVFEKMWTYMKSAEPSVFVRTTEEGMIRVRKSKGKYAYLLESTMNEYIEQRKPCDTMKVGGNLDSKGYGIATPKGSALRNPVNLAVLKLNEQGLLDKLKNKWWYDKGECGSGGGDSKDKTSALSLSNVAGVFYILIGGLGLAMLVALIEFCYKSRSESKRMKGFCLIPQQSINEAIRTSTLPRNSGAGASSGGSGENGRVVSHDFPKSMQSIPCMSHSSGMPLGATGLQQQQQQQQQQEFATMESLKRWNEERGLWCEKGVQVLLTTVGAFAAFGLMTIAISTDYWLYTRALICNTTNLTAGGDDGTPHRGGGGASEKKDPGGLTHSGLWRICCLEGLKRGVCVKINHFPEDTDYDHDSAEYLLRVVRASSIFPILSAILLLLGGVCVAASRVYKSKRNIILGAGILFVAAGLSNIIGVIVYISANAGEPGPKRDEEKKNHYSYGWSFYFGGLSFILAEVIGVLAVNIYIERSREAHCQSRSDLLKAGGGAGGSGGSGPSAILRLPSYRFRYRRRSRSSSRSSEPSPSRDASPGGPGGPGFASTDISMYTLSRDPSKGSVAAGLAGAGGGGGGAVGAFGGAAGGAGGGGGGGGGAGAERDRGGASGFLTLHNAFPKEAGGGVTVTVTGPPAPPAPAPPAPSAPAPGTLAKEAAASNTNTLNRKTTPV
Assay type: cell-based
Description: This assay was used to test compounds for their ability to inhibit TARP γ8 dependent AMPA receptor activity. The AMPA receptor is a non-selective cation channel activated by glutamate. Ionotropic glutamate receptors normally desensitize too rapidly to allow detectable calcium influx in a FLIPR assay (Strange et al. (2006). “Functional characterisation of homomeric ionotropic glutamate receptors GluR1-GluR6 in a fluorescence-based high throughput screening assay.” Comb Chem High Throughput Screen 9(2): 147-158). But, this desensitization is incomplete, and a substantial steady-state current remains in the sustained presence of glutamate (Cho et al. (2007). “Two families of TARP isoforms that have distinct effects on the kinetic properties of AMPA receptors and synaptic currents.” Neuron 55(6): 890-904).
An in vitro assay was used to determine the potency of test compounds as inhibitors of the glutamate response of the channel formed by GluA1o-γ8. To ensure a 1:1 stoichiometry of GluA10 and γ8 subunits in the expressed channel, a fusion of the cDNAs for GRIA1o and CACNG8 was used. Following Shi et al (2009) “The stoichiometry of AMPA receptors and TARPs varies by neuronal cell type.” Neuron 62(5): […]), the C-terminus of the cDNA for GRI1o was fused to the N-terminus of the cDNA for γ8. The linker sequence was […]. […] A clonal cell line in HEK293 cells stably expressing this construct, with a geneticin selection marker, was generated for use in this assay. Cell expressing the GRIA1o-CACNG8 fusion construct were grown in a monolayer in 96- or 384-well microtiter plates. They were washed with assay buffer (135 mM NaCl, 4 mM KCl, 3 mM CaCl2, 1 mM MgCl2, 5 mM glucose, 10 mM HEPES, pH 7.4, 300 mOs) using a Biotek EL405 plate washer. The cells were then loaded with a calcium-sensitive dye (Calcium-5 or Calcium-6, Molecular Devices) and the test compounds at a range of concentrations. Calcium flux following the addition of 15 μM glutamate was monitored using a Molecular Devices FLIPR Tetra.
The fluorescence in each well was normalized to the fluorescence of negative and positive control wells. […] The responses to glutamate as functions of the test compound concentrations were fitted to a four-parameter logistic function. The fitted parameter corresponding to the midpoint was taken to be the potency of inhibition of the compound.

Compared with O=C1Cc2cc(-c3c(-c4ccc(F)cc4)nc4c(N5CC(F)(F)C5)nccn34)ccc2N1 [Example 60, 5-[8-(3,3-Difluoroazetidin-1-yl)-2-(4-fluorophenyl)imidazo[1,2-a]pyrazin-3-yl]indolin-2-one], O=C1Cc2cc(-c3c(-c4ccc(F)cc4)nc4c(N5CC[C@H](O)[C@H](F)C5)nccn34)ccc2N1 (relative stereo) [Example 73, (cis)-5-[8-(3-Fluoro-4-hydroxy-1-piperidyl)-2-(4-fluorophenyl)imidazo[1,2-a]pyrazin-3-yl]indolin-2-one] is 5-fold lower in IC50: 1.58 nM for the first, 0.316 nM for the second.

Going from CN(C)c1nccn2c(-c3ccc4[nH]c(=O)[nH]c4c3)c(-c3ccc(F)cc3)nc12 [Example 101, 5-[8-(Dimethylamino)-2-(4-fluorophenyl)imidazo[1,2-a]pyrazin-3-yl]-1,3-dihydrobenzimidazol-2-one] to O=c1[nH]c2ccc(-c3c(-c4ccc(F)cc4)nc4c(N5CCOCC5)ncc(F)n34)cc2[nH]1 [Example 162, 5-[5-Fluoro-2-(4-fluorophenyl)-8-morpholino-imidazo[1,2-a]pyrazin-3-yl]-1,3-dihydrobenzimidazol-2-one], the IC50 rises from 0.501 nM to 3.98 nM (7.9-fold).

First: COC1CCN(c2nccc3c(-c4ccc5[nH]c(=O)sc5c4)c(-c4ccccc4)nn23)CC1 [Example 213, 6-[7-(4-Methoxy-1-piperidyl)-2-phenyl-pyrazolo[1,5-c]pyrimidin-3-yl]-3H-1,3-benzothiazol-2-one]
Second: O=C1Cc2cc(-c3c(-c4ccc(F)cc4)nn4c(N5CCOCC5)nccc34)ccc2N1 [Example 164, 5-[2-(4-Fluorophenyl)-7-morpholino-pyrazolo[1,5-c]pyrimidin-3-yl]indolin-2-one]
The IC50 of the first is 7.9-fold lower: 0.0631 nM for the first, 0.501 nM for the second.

Compared with c1ccc(Cc2nc3c(N4CCOCC4)nccn3c2-c2ccc3[nH]ncc3c2)cc1 [Example 21, 4-[2-Benzyl-3-(1H-indazol-5-yl)imidazo[1,2-a]pyrazin-8-yl]morpholine], Oc1ccc(-c2c(Cc3ccccc3)nc3c(N4CCOCC4)nccn23)cc1 [Example 15, 4-(2-Benzyl-8-morpholino-imidazo[1,2-a]pyrazin-3-yl)phenol] is 25-fold higher in IC50: 1 nM for the first, 25.1 nM for the second.

Compared with O=C1Cc2cc(-c3c(-c4ccc(F)cc4)nn4c(N5CCS(=O)(=O)CC5)nccc34)ccc2N1 [Example 170, 5-[7-(1,1-Dioxo-1,4-thiazinan-4-yl)-2-(4-fluorophenyl)pyrazolo[1,5-c]pyrimidin-3-yl]indolin-2-one], O=C1CN(c2nccn3c(-c4ccc5[nH]ncc5c4)c(-c4ccc(F)cc4)nc23)CCN1 [Example 33, 4-[2-(4-Fluorophenyl)-3-(1H-indazol-5-yl)imidazo[1,2-a]pyrazin-8-yl]piperazin-2-one] is 3.2-fold lower in IC50: 0.631 nM for the first, 0.2 nM for the second.

Compared with O=C1Cc2cc(-c3c(-c4ccccc4)nc4c(N5CC6CC(C5)O6)nccn34)ccc2N1 [Example 79, 5-[8-(6-Oxa-3-azabicyclo[3.1.1]heptan-3-yl)-2-phenyl-imidazo[1,2-a]pyrazin-3-yl]indolin-2-one], O=C1Cc2cc(-c3c(-c4ccccc4)nc4cnccn34)ccc2N1 [Example 134, 5-(2-Phenylimidazo[1,2-a]pyrazin-3-yl)indolin-2-one] is 320-fold higher in IC50: 0.501 nM for the first, 158 nM for the second.

First: Oc1ccc(-c2c(Cc3cccc(F)c3)nc3c(N4CCOCC4)nccn23)cc1 [Example 96, 4-[2-[(3-Fluorophenyl)methyl]-8-morpholino-imidazo[1,2-a]pyrazin-3-yl]phenol]
Second: Fc1ccc(-c2nc3c(N4CCOCC4)nccn3c2-c2ccc3[nH]cnc3c2)cc1 [Example 31, 4-[3-(1H-Benzimidazol-5-yl)-2-(4-fluorophenyl)imidazo[1,2-a]pyrazin-8-yl]morpholine]
The IC50 of the first is 32-fold lower: 20 nM for the first, 631 nM for the second.

First: CC(C)(C)c1nc2c(N3CCOCC3)nccn2c1-c1ccc2c(c1)CC(=O)N2 [Example 86, 5-(2-tert-Butyl-8-morpholino-imidazo[1,2-a]pyrazin-3-yl)indolin-2-one]
Second: N#Cc1ccc(-c2nc3c(N4CCOCC4)nccn3c2-c2ccc3[nH]ncc3c2)cc1 [Example 97, 4-[3-(1H-Indazol-5-yl)-8-morpholino-imidazo[1,2-a]pyrazin-2-yl]benzonitrile]
The IC50 of the first is 40-fold higher: 158 nM for the first, 3.98 nM for the second.
